Values of other authors in PMC2217462 (The Journal of General Physiology, 2004).

Columns and labels:
[1] = test system: Kv2.1 channel, mutations at F274; conditions: mutations at F274 of Kv2.1; ref Li-Smerin and Swartz, 2000
[2] = test system: Kv2.1 channel, basic substitutions at E277; conditions: substitution of basic residues at E277 of Kv2.1; ref Li-Smerin and Swartz, 2000

For hanatoxin, which “fold increase in hanatoxin Kd” value [1] is on record?
The value was at most 500 fold.

And the “fold increase in hanatoxin Kd” value [2]?
The value was at most 125 fold.
